Source: ChEMBL document CHEMBL5120883, “The Dawn of Allosteric BCR-ABL1 Drugs: From a Phenotypic Screening Hit to an Approved Drug” (2022)

Test system: BaF3
Assay: Antiproliferative activity against mouse BaF3 cells expressing Bcr-Abl assessed as cell growth inhibition
Assay type: functional

Row | GI50 [nM] | SMILES
1 | 290 | FC(F)(F)Oc1ccc(Nc2cc(-c3ccc4[nH]ccc4c3)ncn2)cc1
2 | 720 | FC(F)(F)Oc1cccc(Nc2cc(NCCN3CCOCC3)ncn2)c1
3 | 90 | FC(F)(F)Oc1ccc(Nc2cc(-c3cn[nH]c3)ncn2)cc1
4 | 920 | FC(F)(F)c1ccc(Nc2cc(NCCN3CCOCC3)ncn2)cc1
5 | 120 | NS(=O)(=O)c1ccc(-c2cc(Nc3ccc(OC(F)(F)F)cc3)ncn2)cc1
6 | 720 | FC(F)(F)Oc1ccc(Nc2cc(NCCN3CCOCC3)ncn2)cc1
